Results from patent US8507219B2, “Method of treating inflammation with statins” (MUSC Foundation for Research Development, priority 1997, dated 2013).
Entries after “also recorded” stand apart in the source; their conditions may differ.

What was measured:
[1] = tested on: TNF-α production in rat primary microglia; assay: LPS-induced TNF-α production (ELISA) in rat primary microglia; format: cell-based
Experimental: (§1) Determination of TNF-α and IL-1β in culture supernatants Cells were stimulated with LPS in serum-free media for 24 h in the presence or absence of forskolin or rolipram, and concentrations of TNF-α and IL-1β were measured in culture supernatants by using high-sensitivity enzyme-linked immunosorbent assay (R&D Systems, USA) according to the manufacturer's instructions.

[2] = tested on: IL-1β production in rat primary microglia; assay: LPS-induced IL-1β production (ELISA) in rat primary microglia; format: cell-based
Experimental: as §1

[3] = tested on: control human skin fibroblasts; assay: β-oxidation of lignoceric acid in control human skin fibroblasts; format: cell-based; settings: 72 h
[4] = tested on: cultured skin fibroblasts of X-ALD; assay: VLCFA ratios (C26:0/C22:0, C24:0/C22:0) in X-ALD skin fibroblasts; format: cell-based, human; settings: about 15 days of treatment
[5] = tested on: iNOS; assay: Expression of iNOS protein (immunoblot) and mRNA (Northern) in rat primary astrocytes; format: cell-based; settings: 10 μM forskolin or 0.2 μM H-89 15 min before cytokines / LPS
Experimental: (§2) Immunoblot analysis for iNOS Following 24 h incubation in the presence or absence of stimuli by different cytokines or LPS, macrophages were scraped off, washed with Hank's buffer, and homogenized in 50 mM Tris-HCl (pH 7.4) containing protease inhibitors (1 nM PMSF, 5 μg/ml aprotinin, 5 μg/ml pepstatin A, and 5 μg/ml leupeptin). After electrophoresis the proteins were transferred onto a nitrocellulose membrane, and the iNOS band was visualized by immunoblotting with antibodies against mouse macrophage iNOS and [^125I]-labeled protein A (Singh et al., 1988).
RNA isolation, Northern blot analysis, and reverse-transcriptase coupled polymerase chain reaction (RT-PCR) Stimulated peritoneal macrophages were taken out from culture dishes directly by adding Ultraspec-II RNA reagent (Biotecx Laboratories Inc.) and total RNA was isolated according to the manufacturer's protocol. For northern blot analyses, 20 μg of total RNA was electrophoresed on 1.2% denaturing formaldehyde-agarose gels, electrotransferred to Hybond-Nylon Membrane (Amersham) and hybridized at 68° C. with ^32P-labeled cDNA probe using Express Hyb hybridization solution (Clontech) as described by the manufacturer. […]; After hybridization filters were washed two to three times in solution I (2×SSC, 0.05% SDS) for 1 h at room temperature followed by solution II (0.1×SSC, 0.1% SDS) at 50° C. for another hour. The membranes were then dried and exposed to X-ray film (Kodak). The same filters were stripped and rehybridized with probes for GAPDH. The relative mRNA content for iNOS was measured after scanning the bands with a Biorad (Model GS-670) imaging densitometer.
as §2, with “of” for “of stimuli by”, “stimuli, cells” for “cytokines or LPS, macrophages”, “inhibitors.” for “inhibitors (1 nM PMSF, 5 μg/ml aprotinin, 5 μg/ml pepstatin A, and 5 μg/ml leupeptin).”, “A.” for “A (Singh et al., 1988).”
RNA isolation and Northern blot analysis Cells were taken out from culture dishes directly by adding Ultraspec-II RNA reagent (Biotecx Laboratories Inc.) and total RNA was isolated according to the manufacturer's protocol. For Northern blot analyses, 20 μg of total RNA was electrophoresed on 1.2% denaturing formaldehyde-agarose gels, electrotransferred to Hybond-Nylon Membrane (Amersham) and hybridized at 68° C. with ^32P-labeled cDNA probe using Express Hyb hybridization solution (Clontech) as described by the manufacturer. […]; After hybridization filters were washed two or three times in solution I (2×SSC, 0.05% SDS) for one hour at room temperature followed by solution II (0.1×SSC, 0.1% SDS) at 50° C. for another hour. The membranes were then dried and exposed with X-ray films (Kodak). The same filters were stripped and rehybridized with probes for GAPDH. The relative mRNA content for iNOS was measured after scanning the bands with a Biorad (Model GS-670) imaging densitometer.
as §2, with “After a” for “Following”, “of” for “of stimuli by”, “stimuli, cells” for “cytokines or LPS, macrophages”, “mM” for “nM”, “A.” for “A (Singh et al., 1988).”
RNA isolation and Northern blot analysis Cells were taken out from culture dishes directly by adding Ultraspec-II RNA reagent (Biotecx Laboratories Inc., Houston, Tex.), and total RNA was isolated according to the manufacturer's protocol. […]

[6] = tested on: TNF-α production in rat resident macrophages; assay: LPS-/IFN-γ-induced TNF-α production (ELISA) in rat macrophages; format: cell-based
Experimental: Resident macrophages cultured in serum-free RPMI 1640 medium received 20 mM NAC or 100 μM PDTC 2 h before the addition of stimuli. When stimuli were used separately their concentrations were: LPS, 1.0 μg/ml; IFN-γ, 200 U/ml, and when they were used together, their concentrations were: LPS, 0.2 μg/ml; IFN-γ, 50 U/ml. Supernatants were collected 24 h after the addition of stimuli to measure TNF-α concentration using ELISA as described.

[7] = tested on: NOS activity in rat resident macrophages; assay: NOS activity (L-citrulline from L-arginine) in homogenates of treated rat resident macrophages; format: cell-based; settings: LPS 1.0 μg/ml, 24 h
Experimental: NOS activity was measured directly by production of L-[2,3,4,5-^3H]citrulline from L-[2,3,4,5-^3H] arginine (Feinstein et al., 1994a). […] Assays were carried out for 30 to 40 min and the production of L-[2,3,4,5-^3H] citrulline was linear. The reactions were stopped by addition of 800 μl of ice-cold 20 mM HEPES (pH 5.5) followed by addition of 2 ml of Dowex-50W equilibrated in the same buffer. The samples were then centrifuged and the concentration of L-[^3H]citrulline was determined in the supernatant by liquid scintillation counting.

[8] = tested on: ceramide production in rat primary astrocytes; assay: Degradation of sphingomyelin to ceramide (DAG kinase assay, HPTLC) in rat primary astrocytes; format: cell-based; settings: 10 mM NAC or 100 μM PDTC 1 h before TNF-α or IL-1β (50 ng/ml), diamide 0.5 mM or aminotriazole 5 mM
Experimental: Lipid extraction Approximately 1.0×10^6 cells were exposed to different cytokines in the presence or absence of antioxidants for different periods and lipids were extracted according to the methods described by Welsh (1996).
Quantification of sphingomyelin by HPTLC and densitometry Sphingomyelin was separated from total lipid extracts by HPTLC (LPK-plates from Whatman Labsales, USA) as described (Ganser et al., 1988) for phospholipids with the modification, that the plate was overrun for 30 min during its development and was dried overnight in vacuum desicator. Sphingomyelin was quantitated by densitometric scanning using Imaging Densitometer (Model GS-670; Bio-Rad, USA) and software provided with the instrument by the manufacturer.
Quantification of ceramide levels by diacylglycerol kinase assay Ceramide content was quantified essentially according to Priess et al. using diacylglycerol (DAG) kinase and [γ-^32P]ATP (Priess et al., 1986). Briefly, dried lipids were solubilized in 20 μl of an octyl β-D-glucoside/cardiolipin solution (7.5% octyl β-D-glucoside, 5 mM cardiolipin in 1 mM DTPA) by sonication in a sonicator bath. […] The labeled ceramide 1-phosphate was resolved with a solvent system consisting of methyl acetate: n-propanol:chloroform:methanol:0.25% KCl in water:acetic-acid (100:100:100:40:36:2). A standard sample of ceramide was phosphorylated under identical conditions and developed in parallel. […] Quantification of ceramide 1-phosphate was carried out by autoradiography and densitometric scanning using Imaging Densitometer (Model GS-670; Bio-Rad, USA). Values are expressed either as arbitrary units (absorbance) or as percent change.
Lipid Extraction Approximately 1.0×10^6 cells were exposed to different cytokines in the presence or absence of antioxidants for different periods, and lipids were extracted according to the methods described by Welsh (1996).
Quantification of Sphingomyelin by High Performance TLC and Densitometry Sphingomyelin was separated from total lipid extracts by high performance TLC (LHPK plates from Whatman) as described by Ganser et al. (1988) for phospholipids with the following modification: the plate was overrun for 30 min during its development and was dried overnight in vacuum desiccator. Sphingomyelin was quantitated by densitometric scanning using Imaging Densitometer (model GS-670; Bio-Rad), and software was provided with the instrument by the manufacturer.
Quantification of Ceramide Levels by Diacylglycerol Kinase Assay Ceramide content was quantified essentially according to Priess et al. (1986) using diacylglycerol (DAG) kinase and [γ-^32P]ATP. Briefly, dried lipids were solubilized in 20 μl of an octyl β-D-glucoside/cardiolipin solution (7.5% octyl β-D-glucoside, 5 mM cardiolipin in 1 mM DTPA) by sonication in a sonicator bath. […] The labeled ceramide-1-phosphate was resolved with a solvent system consisting of methyl acetate:n-propyl alcohol:chloroform:methanol, 0.25% KCl in water:acetic acid (100:100:100:40:36:2). A standard sample of ceramide was phosphorylated under identical conditions and developed in parallel. […] Quantification of ceramide-1-phosphate was carried out by autoradiography and densitometric scanning using Imaging Densitometer (model GS-670; Bio-Rad). Values are expressed either as arbitrary units (absorbance) or as percent change.

SMILES: O=S(=O)(NCCNC/C=C/c1ccc(Br)cc1)c1cccc2cnccc12 [H-89]
- LPS-induced production of TNF-α [1]: stimulated the production of these proinflammatory cytokines in rat primary microglia
- LPS-induced production of IL-1β [2]: stimulated the production of these proinflammatory cytokines in rat primary microglia
- Lignoceric acid β-oxidation ([3]; forskolin 4 μM, 1,9 dideoxy forskolin 4 μM, 8-Br-cAMP 50 μM, H-89 1 μM, myristoylated PKI 0.2 μM, Control 565.2 ± 48.3): 405.6 ± 44.1 pmol/h/mg protein
- ratios of C26:0/C22:0 and C24:0/C22:0 / level of VLCFA [4]: blocked the observed effect of forskolin on the level of VLCFA
- cytokine-induced expression of iNOS [5]: stimulated the cytokine-induced expression of iNOS

SMILES: S=C(S)N1CCCC1 [PDTC, pyrrolidine dithiocarbamate]
- Inhibition (%) ([6]; LPS 0.2 μg/ml + IFN-γ 50 U/ml, 20 mM NAC or 100 μM PDTC 2 h before): 96%
- TNF-α ([6]; LPS 0.2 μg/ml + IFN-γ 50 U/ml, 20 mM NAC or 100 μM PDTC 2 h before, 24 h): 1.4 ± 0.3 ng/24 h/mg protein
- Inhibition (%) ([6]; LPS 1.0 μg/ml, 20 mM NAC or 100 μM PDTC 2 h before): 95%
- TNF-α ([6]; LPS 1.0 μg/ml, 20 mM NAC or 100 μM PDTC 2 h before, 24 h): 0.9 ± 0.1 ng/24 h/mg protein
- TNF-α ([6]; antioxidant alone (20 mM NAC or 100 μM PDTC), no stimulus): 0.7 ± 0.2 ng/24 h/mg protein
- LPS-induced NOS activity, L-citrulline formation [7]: inhibited LPS-induced NOS activity
- degradation of sphingomyelin to ceramide / ceramide production [8]: potentially blocked the decrease in sphingomyelin as well as the increase in ceramide; also recorded: also inhibited cytokine-mediated degradation of SM to ceramide

SMILES: CC[C@H](C)C(=O)O[C@H]1CCC=C2C=C[C@H](C)[C@H](CC[C@@H]3C[C@@H](O)CC(=O)O3)[C@H]21 [Mevastatin]
- Lignoceric acid β-oxidation ([3]; Lovastatin 5 μM, Mevastatin 5 μM, NaPA 5 mM, Control 570.2 ± 52.3): 889.6 ± 78.4 pmol/h/mg protein
